Publication PMC11852235, “Discovery of Effective Inhibitors Against Phosphodiesterase 9, a Potential Therapeutic Target of Alzheimer’s Disease with Antioxidant Capacities” (Antioxidants, 2025)
Where “and” joins values, the source holds several entries; their conditions need not be identical. Identical values can stand only once. Like-named read-outs stand apart in the source and are kept apart here.

Legend:
[1] = Antioxidant activity, ORAC-FL method; settings: Trolox as standard
Procedure: The modified Oxygen Radical Absorbance Capacity Fluorescein (ORAC-FL) method was used for antioxidant activity test. In brief, the mixture of test compounds (20 μL) and fluorescein (120 μL, final concentration of 150 nM) was added into a black 96-well plate and incubated for 15 min at 37 °C. Then, 60 μL of 2,2′-azobis(2-amidinopropane) dihydrochloride (AAPH) solution (12 mM) was added rapidly to induce the reaction. The fluorescence with an excitation wavelength of 485 nm and emission at 535 nm was measured in Spectrafluor Plus plate reader (Tecan, Crailsheim, Germany) every minute for 4 h. Integration of the area under the curve (AUC) was […] 1 to 8 μM Trolox was used as a standard. Each compound was tested at 1–10 μM at least in three independent assays. The ORAC-FL values of each compound were calculated according to Equation (1) and expressed as Trolox equivalents.(1) ORAC-FL value=AUCsample−AUCblank/AUCTrolox−AUCblank×ConcentrationTrolox/Concentrationsample

[2] = target: T1, PDE9 (catalytic domain of PDE9A2) (Homo sapiens, UniProt O76083); test: Enzymatic assay against PDE9 (3H-cGMP hydrolysis, scintillation counting); format: biochemical; settings: for inhibition at 0.01 µM: at a concentration of 0.01 μM
T1 construct: PDE9 recombinant catalytic domain (amino acid 181–506); made in house; host or cells: E. coli BL21 (Codonplus)
T1 sequence (O76083 241-566): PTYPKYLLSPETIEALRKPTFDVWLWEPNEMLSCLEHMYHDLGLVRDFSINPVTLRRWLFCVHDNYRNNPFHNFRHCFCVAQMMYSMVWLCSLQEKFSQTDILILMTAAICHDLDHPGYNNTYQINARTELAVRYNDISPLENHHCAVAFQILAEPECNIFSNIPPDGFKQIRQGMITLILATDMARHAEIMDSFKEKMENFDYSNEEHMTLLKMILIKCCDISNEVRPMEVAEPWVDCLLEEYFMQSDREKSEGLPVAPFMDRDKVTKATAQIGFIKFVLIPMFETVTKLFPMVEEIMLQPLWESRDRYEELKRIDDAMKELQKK
Procedure: In brief, E. coli strain BL21 (Codonplus), which carrying with recombinant pET-PDE9A2 plasmid, was grown in LB medium (containing 100 μg/mL ampicillin and 0.4% glucose) at 37 °C until an OD600 achieved 0.6–0.8. Then, the temperature was turned down to 15 °C, and 0.1 mM iso-propyl-b-D-thiogalactopyranoside was added to LB medium to induce the expression of PDE9A2 protein. Bacteria were induced for 20 h and collected for purified PDE9A2 recombinant protein by a Ni-NTA column (Qiagen, Venlo, The Netherlands).
As for the enzymatic assays, ^3H-cGMP (20,000–30,000 cpm, GE Healthcare), the substrate for enzymatic assays against PDE9A2, were diluted in an assay buffer (containing 50 mM Tris-HCl (pH 8.0), 10 mM MgCl2, and 1 mM DTT). And then, the substrate ^3H-cGMP, catalytic domain of PDE9A2, and different concentrations of tested compounds were incubated at room temperature for 15 min. To terminate the reaction, 0.2 M ZnSO4 and 0.2 N Ba(OH)2 were added to the mixture, leaving unreacted ^3H-cGMP in the supernatant. […] Each compound was measured at a minimum of eight concentrations for the IC50 calculation and repeated at least three times.
4.Enzymatic assays against PDE9
The assay buffer contains 50 mM Tris-HCl (pH 8.0), 10 mM MgCl2 or 4 mM MnCl2, 1 mM DTT, and 10-20 nM 3H-cGMP (15000−30000 cpm/assay, CPM control). The reaction was carried out at room temperature for 15 min and then terminated by addition of 0.2 M ZnSO4. The reaction product 3H-GMP was precipitated out by […], whereas unreacted 3H-cGMP remained in the supernatant. The radioactivity in the supernatant was measured in 2.5 […]
(CPMenzyme). For the measurement of IC50 of inhibitors, at least seven concentrations of inhibitors were used in the presence of 3H-cGMP. The enzyme concentration in a range of 10− 100 ng/mL, which hydrolyzed 50- 70% of the substrate, was chosen for each inhibitory assay. The radioactivity was recorded as CPMinhibitor. The IC50 values for PDE9 were calculated using a nonlinear regression analysis.
Inhibition = […] × 100%

[3] = 0.25 h, read-out: Inhibition ratio against PDE9
[4] = 0.25 h, at a concentration of 0.1 μM, read-out: Inhibition ratio against PDE9
[5] = 6.25 nM, read-out: Inhibition (PDE9 dose-response, single runs)
[6] = 25 nM, read-out: Inhibition (PDE9 dose-response, single runs)
[7] = 50 nM, read-out: Inhibition (PDE9 dose-response, single runs)
[8] = 100 nM, read-out: Inhibition (PDE9 dose-response, single runs)
[9] = 200 nM, read-out: Inhibition (PDE9 dose-response, single runs)
[10] = 400 nM, read-out: Inhibition (PDE9 dose-response, single runs)
[11] = 800 nM, read-out: Inhibition (PDE9 dose-response, single runs)
[12] = 1600 nM, read-out: Inhibition (PDE9 dose-response, single runs)

## CC(Cc1c[nH]c2ccccc12)Nc1nc2c(cnn2C2CCCC2)c(=O)[nH]1 (stereo not shown) [Compound 17a, 6-((1-(1H-indol-3-yl)propan-2-yl)amino)-1-cyclopentyl-1,5-dihydro-4H-pyrazolo[3,4-d]pyrimidin-4-one]
[1]
  ORAC: 0.37 ± 0.04 μmol of Trolox equiv/μmol tested compound
[2]; [3]
  inhibition at 0.01 µM: 68%
[2]; [4]
  inhibition at 0.1 µM: 78%

## O=c1[nH]c(NCCc2c[nH]c3ccc(O)cc23)nc2c1cnn2C1CCCC1 [Compound 17b, 1-cyclopentyl-6-((2-(5-hydroxy-1H-indol-3-yl)ethyl)amino)-1,5-dihydro-4H-pyrazolo[3,4-d]pyrimidin-4-one]
[2]
  IC50: 91.1 nM and 91 nM
[2]; 6.25 nM, 0.00625 µM
  Inhibition (PDE9 dose-response, single runs): 9.16%
[2]; [5]
  inhibition at 0.00625 µM: 6.08%
[2]; 12.5 nM, 0.0125 µM
  Inhibition (PDE9 dose-response, single runs): 9.23% and 4.22%
[2]; 25 nM, 0.025 µM
  Inhibition (PDE9 dose-response, single runs): 21.21%
[2]; [6]
  inhibition at 0.025 µM: 24.1%
[2]; 50 nM, 0.05 µM
  Inhibition (PDE9 dose-response, single runs): 34.04%
[2]; [7]
  inhibition at 0.05 µM: 36.3%
[2]; 100 nM, 0.1 µM
  Inhibition (PDE9 dose-response, single runs): 49.42%
[2]; [8]
  inhibition at 0.1 µM: 55.3%
[2]; 200 nM, 0.2 µM
  Inhibition (PDE9 dose-response, single runs): 66.06%
[2]; [9]
  inhibition at 0.2 µM: 67.7%
[2]; 400 nM, 0.4 µM
  Inhibition (PDE9 dose-response, single runs): 76.31%
[2]; [10]
  inhibition at 0.4 µM: 82.6%
[2]; 800 nM, 0.8 µM
  Inhibition (PDE9 dose-response, single runs): 86.82%
[2]; [11]
  inhibition at 0.8 µM: 90.6%
[2]; 1600 nM, 1.6 µM
  Inhibition (PDE9 dose-response, single runs): 94.94%
[2]; [12]
  inhibition at 1.6 µM: 95.1%
[2]; [3]
  inhibition at 0.01 µM: 16%

## COc1ccc2[nH]cc(CC(C)Nc3nc4c(cnn4C4CCCC4)c(=O)[nH]3)c2c1 (stereo not shown) [Compound 17c, 1-cyclopentyl-6-((1-(5-methoxy-1H-indol-3-yl)propan-2-yl)amino)-1,5-dihydro-4H-pyrazolo[3,4-d]pyrimidin-4-one]
[2]
  IC50: 1.8 nM
[2]; [3]
  inhibition at 0.01 µM: 84%

## COc1ccc2[nH]cc(CC(C)Nc3nc4c(cnn4C4CCOCC4)c(=O)[nH]3)c2c1 (stereo not shown) [Compound 17d, 6-((1-(5-methoxy-1H-indol-3-yl)propan-2-yl)amino)-1-(tetrahydro-2H-pyran-4-yl)-1,5-dihydro-4H-pyrazolo[3,4-d]pyrimidin-4-one]
[2]
  IC50: 89 nM
[2]; 6.25 nM, 0.00625 µM
  Inhibition (PDE9 dose-response, single runs): 13.00%
[2]; [5]
  inhibition at 0.00625 µM: 13.8%
[2]; 12.5 nM, 0.0125 µM
  Inhibition (PDE9 dose-response, single runs): 26.71%
[2]; 12.5 nM, read-out: Inhibition (PDE9 dose-response, single runs)
  inhibition at 0.0125 µM: 34.7%
[2]; 25 nM, 0.025 µM
  Inhibition (PDE9 dose-response, single runs): 28.77%
[2]; [6]
  inhibition at 0.025 µM: 26.4%
[2]; 50 nM, 0.05 µM
  Inhibition (PDE9 dose-response, single runs): 37.79%
[2]; [7]
  inhibition at 0.05 µM: 43.8%
[2]; 100 nM, 0.1 µM
  Inhibition (PDE9 dose-response, single runs): 60.91%
[2]; [8]
  inhibition at 0.1 µM: 61.6%
[2]; 200 nM, 0.2 µM
  Inhibition (PDE9 dose-response, single runs): 75.64%
[2]; [9]
  inhibition at 0.2 µM: 77.6%
[2]; 400 nM, 0.4 µM
  Inhibition (PDE9 dose-response, single runs): 87.67%
[2]; [10]
  inhibition at 0.4 µM: 90.5%
[2]; 800 nM, 0.8 µM
  Inhibition (PDE9 dose-response, single runs): 94.30%
[2]; [11]
  inhibition at 0.8 µM: 96.4%
[2]; 1600 nM, 1.6 µM
  Inhibition (PDE9 dose-response, single runs): 97.54%
[2]; [12]
  inhibition at 1.6 µM: 108%
[2]; [3]
  inhibition at 0.01 µM: 13%

## CC(CCc1c[nH]c2ccccc12)Nc1nc2c(cnn2C2CCCC2)c(=O)[nH]1 (stereo not shown) [Compound 17e, 6-((4-(1H-indol-3-yl)butan-2-yl)amino)-1-cyclopentyl-1,5-dihydro-4H-pyrazolo[3,4-d]pyrimidin-4-one]
[1]
  ORAC: 0.33 ± 0.002 μmol of Trolox equiv/μmol tested compound
[2]; [3]
  inhibition at 0.01 µM: 67%
[2]; [4]
  inhibition at 0.1 µM: 83%

## CC(CC1CNc2ccccc21)Nc1nc2c(cnn2C2CCCC2)c(=O)[nH]1 (stereo not shown) [Compound 17f, 1-cyclopentyl-6-((1-(indolin-3-yl)propan-2-yl)amino)-1,5-dihydro-4H-pyrazolo[3,4-d]pyrimidin-4-one]
[1]
  ORAC: 0.66 ± 0.04 μmol of Trolox equiv/μmol tested compound
[2]; [3]
  inhibition at 0.01 µM: 59%
[2]; [4]
  inhibition at 0.1 µM: 67%

## CC(Cc1n[nH]c2ccccc12)Nc1nc2c(cnn2C2CCCC2)c(=O)[nH]1 (stereo not shown) [Compound 17g, 6-((1-(1H-indazol-3-yl)propan-2-yl)amino)-1-cyclopentyl-1,5-dihydro-4H-pyrazolo[3,4-d]pyrimidin-4-one]
[1]
  ORAC: 0.17 ± 0.004 μmol of Trolox equiv/μmol tested compound
[2]; [3]
  inhibition at 0.01 µM: 70%
[2]; [4]
  inhibition at 0.1 µM: 82%

## COc1ccc2[nH]nc(CC(C)Nc3nc4c(cnn4C4CCCC4)c(=O)[nH]3)c2c1 (stereo not shown) [Compound 17h, 1-cyclopentyl-6-((1-(5-methoxy-1H-indazol-3-yl)propan-2-yl)amino)-1,5-dihydro-4H-pyrazolo[3,4-d]pyrimidin-4-one]
[1]
  ORAC: 0.22 ± 0.12 μmol of Trolox equiv/μmol tested compound
[2]; [3]
  inhibition at 0.01 µM: 65%
[2]; [4]
  inhibition at 0.1 µM: 69%

## COc1ccc2[nH]cc(CN[C@H](C)c3nc4c(cnn4C4CCCC4)c(=O)[nH]3)c2c1 [Compound 18c, (R)-1-cyclopentyl-6-(1-(((5-methoxy-1H-indol-3-yl)methyl)amino)ethyl)-1,5-dihydro-4H-pyrazolo[3,4-d]pyrimidin-4-one]
[2]
  IC50: 194 nM
[2]; 6.25 nM, 0.00625 µM
  Inhibition (PDE9 dose-response, single runs): -0.81% and -1.99%
[2]; 12.5 nM, 0.0125 µM
  Inhibition (PDE9 dose-response, single runs): 4.63% and -3.63%
[2]; 25 nM, 0.025 µM
  Inhibition (PDE9 dose-response, single runs): -0.82% and 5.95%
[2]; 50 nM, 0.05 µM
  Inhibition (PDE9 dose-response, single runs): -1.13% and 3.15%
[2]; 100 nM, 0.1 µM
  Inhibition (PDE9 dose-response, single runs): 16.13%
[2]; [8]
  inhibition at 0.1 µM: 9.05%
[2]; 200 nM, 0.2 µM
  Inhibition (PDE9 dose-response, single runs): 51.73%
[2]; [9]
  inhibition at 0.2 µM: 42.9%
[2]; 400 nM, 0.4 µM
  Inhibition (PDE9 dose-response, single runs): 69.38%
[2]; [10]
  inhibition at 0.4 µM: 75.3%
[2]; 800 nM, 0.8 µM
  Inhibition (PDE9 dose-response, single runs): 80.02%
[2]; [11]
  inhibition at 0.8 µM: 90.6%
[2]; 1600 nM, 1.6 µM
  Inhibition (PDE9 dose-response, single runs): 87.34%
[2]; [12]
  inhibition at 1.6 µM: 90.2%
[2]; [4]
  inhibition at 0.1 µM: < 30%

## COc1ccc2c(c1)c(CN[C@H](C)c1nc3c(cnn3C3CCCC3)c(=O)[nH]1)cn2C [Compound 18d, (R)-1-cyclopentyl-6-(1-(((5-methoxy-1-methyl-1H-indol-3-yl)methyl)amino)ethyl)-1,5-dihydro-4H-pyrazolo[3,4-d]pyrimidin-4-one]
[2]
  IC50: 214 nM
[2]; 6.4875 nM, 0.0064875 µM
  Inhibition (PDE9 dose-response, single runs): 4.86% and 1.81%
[2]; 12.975 nM, 0.012975 µM
  Inhibition (PDE9 dose-response, single runs): 9.60%
[2]; 12.975 nM, read-out: Inhibition (PDE9 dose-response, single runs)
  inhibition at 0.012975 µM: 4.99%
[2]; 25.95 nM, 0.02595 µM
  Inhibition (PDE9 dose-response, single runs): 11.54%
[2]; 25.95 nM, read-out: Inhibition (PDE9 dose-response, single runs)
  inhibition at 0.02595 µM: 16.6%
[2]; 51.9 nM, 0.0519 µM
  Inhibition (PDE9 dose-response, single runs): 21.64%
[2]; 51.9 nM, read-out: Inhibition (PDE9 dose-response, single runs)
  inhibition at 0.0519 µM: 20.2%
[2]; 103.8 nM, 0.1038 µM
  Inhibition (PDE9 dose-response, single runs): 34.81%
[2]; 103.8 nM, read-out: Inhibition (PDE9 dose-response, single runs)
  inhibition at 0.1038 µM: 33.4%
[2]; 207.6 nM, 0.2076 µM
  Inhibition (PDE9 dose-response, single runs): 49.32%
[2]; 207.6 nM, read-out: Inhibition (PDE9 dose-response, single runs)
  inhibition at 0.2076 µM: 54.3%
[2]; 415.2 nM, 0.4152 µM
  Inhibition (PDE9 dose-response, single runs): 80.76%
[2]; 415.2 nM, read-out: Inhibition (PDE9 dose-response, single runs)
  inhibition at 0.4152 µM: 86.5%
[2]; 830.4 nM, 0.8304 µM
  Inhibition (PDE9 dose-response, single runs): 88.96%
[2]; 830.4 nM, read-out: Inhibition (PDE9 dose-response, single runs)
  inhibition at 0.8304 µM: 93%
